# Values joined by “and” are separate entries in the source; they are usually repeats but may differ in a detail not shown here. Equal values may be shown once. Read-outs that look alike come from different tables or passages of the source.
# How the values were obtained:
# Assay type in all cases: physicochemical
# [1] = Intrinsic aqueous solubility; settings: water
# Description: Therefore, it was necessary to formulate the compound in such a way to get the desired solubility at a physiological pH and maintain stability prior to administration.
# [2] = Stability of solution in presence of POE castor oil at 50° C.; settings: for Potency / Total Impurities: solution containing dehydrated alcohol and POE castor oil
# Description: As shown below, the stability of the solution containing POE castor oil was much lower than the injection solution without the co-solvent.
# [3] = Dilution of drug solution with aqueous diluents; settings: 15 mg/mL drug solution (75% ethanol/10 mM tartrate buffer, apparent pH 5.4) diluted with 0.9% sodium chloride injection or 5% dextrose injection
# [4] = Equilibrium solubility in diluted drug product (mixed two-vial formulation); settings: 7.5% ethanol, 4% POE castor oil in tartrate buffer; for solubility thermodynamic at 16 h: 24 °C
# Method: A study was also undertaken to determine the equilibrium solubility of Compound Ia in the mixture obtained by mixing the contents of the two vial formulation. Ten milliliters of the mixed solution was transferred into four 10 cc Type I flint glass vials. To each of these aliquots, approximately 25 mg of drug substance was added. A different lot of drug substance was added to each vial. Vials were closed with West Teflon-faced stoppers, sealed with aluminum seals and stirred for 16 hours at room temperature, protected from light. Samples were filtered through 0.45 micron hydrophilic PVDF membranes and analyzed by HPLC for drug concentration. Solubility results are listed below in Table VI. […] Samples were prepared and stirred at 24±3° C. for about 5 hours and placed in a 5±3° C. storage chamber for about 17 hours. Upon removal from the storage chamber, samples were immediately filtered and analyzed by HPLC for drug concentration.
# [5] = Solubility in aqueous dehydrated alcohol / POE castor oil solutions; settings: aqueous dehydrated alcohol/POE castor oil solution, 24 °C, aqueous with cosolvent or surfactant or cyclodextrin, thermodynamic from solid, stirred 16 hours, read-out: Drug Solubility
# Method: However, this solution cannot be injected directly into patients as the non-aqueous components exceed 20%, thus potentially causing irritation at the injection site. […] It has been shown that the precipitation can be avoided by inclusion of a co-solvent such as polyoxyethylated (POE) castor oil in the formulation. Subsequently, solubility of the drug substance was determined in solutions containing various amounts of dehydrated alcohol and POE castor oil. Approximately 20 mg of drug was added to 3 mL aliquots of the solutions shown below in Table III. Samples were stirred for 16 hours, filtered trough 0.45 micron nylon syringe filters and analyzed by HPLC for drug concentration.
# [6] = Effect of pH on drug substance stability in ethanol:buffer solutions; settings: for % Compound Remaining / Total Impurity Index: 1 mg/mL in 75% v/v ethanol:0.01M tartrate, 18 days 50° C.
# Method: The effect of pH on the drug substance stability was also studied. The buffer pH providing maximum stability was determined by comparing the stability of prototype formulations of the drug substance. […] Relative area percents of drug peaks were evaluated following 2 days storage at 85° C. […] Subsequent experiments evaluated stability (1 mg drug/mL) in 75% v/v ethanol:0.01M tartrate buffers. Three mL aliquots of samples were dispensed into 5 cc Type I glass vials and closed with West 4405/50 20 mm stoppers. Percent drug substance remaining, and impurities were evaluated following 18 days storage at 50° C. and compared to initial values.
# [7] = Solubility in prototype formulation (75% v/v dehydrated alcohol, 10 mM tartrate buffer, apparent pH 5.4); settings: aqueous with cosolvent or surfactant or cyclodextrin, thermodynamic from solid
# Method: Solubility of four lots of drug substance was evaluated in the prototype formulation developed; 75% v/v dehydrated alcohol, 10 mM tartrate buffer resulting in an apparent pH of 5.4. 15 mg/mL of drug substance were used. 5 mL aliquots of the solution were dispensed into glass vials and an additional (˜50 mg) of drug substance was added. The vials were closed, sealed and stirred for 16 hours at room temperature. Samples were filtered and analyzed by HPLC for drug concentration.
# [8] = Solubility of compound in a co-solvent:water mixture; settings: aqueous with cosolvent or surfactant or cyclodextrin, thermodynamic from solid, stirred over 16 hours
# Method: Approximately 25 mg of drug substance was added to 2 mL aqueous solution of ethanol (33%, 50% and 75% v/v). An additional 10 mg of drug substance was added to the 75% sample as all drug appeared to dissolve. A similar study was performed by adding approximately 25 mg drug substance to 2 mL aqueous solution of tertiary butyl alcohol (33%, 50% and 66% v/v). Samples were stirred for over 16 hours, filtered through 0.45μ nylon syringe filters, diluted and analyzed by HPLC for drug concentration. The results shown in Table I indicate that among the conditions evaluated, 75% v/v dehydrated alcohol in water for injection provided the highest solubility. Based on the results of these studies, a formulation of 15 mg/mL drug substance in 75% v/v ethanol:water was selected for further studies.
# [9] = Buffer pH 2.6, apparent pH 3.88
# [10] = Buffer pH 3.0, apparent pH 4.67
# [11] = Buffer pH 3.5, apparent pH 5.15
# [12] = Buffer pH 3.6, apparent pH 5.20
# [13] = Buffer pH 3.8, apparent pH 5.39
# [14] = Buffer pH 4.0, apparent pH 5.69
# [15] = Buffer pH 4.0, apparent pH 5.81
# [16] = Buffer pH 4.2, apparent pH 5.99
# [17] = Buffer pH 4.4, apparent pH 6.24
compound,measurement,setting,value
"CSCO[C@H]1C[C@H]2OC[C@@]2(OC(C)=O)[C@H]2[C@H](OC(=O)c3ccccc3)[C@]3(O)C[C@H](OC(=O)[C@H](O)[C@@H](NC(=O)c4ccccc4)c4ccccc4)C(C)=C([C@@H](OC(C)=O)C(=O)[C@]12C)C3(C)C [Compound Ia, 7-O-methylthiomethylpaclitaxel]",solubility,[1],< 0.1 µg/mL
same,Potency,[2]; 6 days @ 50° C.,2000 µg/mL
same,Total Impurities,[2]; 6 days @ 50° C.,10.9
same,Potency,[2]; 16 days @ 50° C.,1900 µg/mL
same,Total Impurities,[2]; 16 days @ 50° C.,16.5
same,Potency,[2]; Initial,2200 µg/mL
same,Total Impurities,[2]; Initial,2.1
same,% potency remaining,"[2]; injection solution (ethanol, pH 5.4 tartrate buffer) w/o POE castor oil, 28 days stored at 50° C.",100%
same,% potency remaining,"[2]; injection solution (ethanol, pH 5.4 tartrate buffer) with POE castor oil 4%, 16 days stored at 50° C.",86%
same,outcome of dilution with aqueous diluents,[3],drug precipitation
same,solubility thermodynamic,"[4]; 5 °C, aqueous with cosolvent or surfactant or cyclodextrin, thermodynamic from solid, 5 ± 3° C.",2460 µg/mL
same,solubility thermodynamic at 16 h,"[4]; aqueous with cosolvent or surfactant or cyclodextrin, thermodynamic from solid, 24 ± 3° C., individual lots of drug substance, read-out: Equilibrium Solubility in Diluted Drug Product",2580 µg/mL
same,solubility thermodynamic at 16 h,"[4]; aqueous with cosolvent or surfactant or cyclodextrin, thermodynamic from solid, Average @ 24 ± 3° C., four lots, read-out: Equilibrium Solubility in Diluted Drug Product, Average",~2580 µg/mL
same,Equilibrium Solubility in Diluted Drug Product,"[4]; 24 ± 3° C., individual lots of drug substance",2570 µg/mL and 2620 µg/mL and 2560 µg/mL
same,"Equilibrium Solubility in Diluted Drug Product, Average","[4]; Average @ 24 ± 3° C., four lots",2580 µg/mL
same,solubility at 16 h,"[5]; Aqueous vehicle: Dehydrated Alcohol 3.75% v/v, POE Castor Oil 2% v/v",960 µg/mL
same,solubility at 16 h,"[5]; Aqueous vehicle: Dehydrated Alcohol 7.50% v/v, POE Castor Oil 4% v/v",> 1500 µg/mL
same,solubility at 16 h,"[5]; Aqueous vehicle: Dehydrated Alcohol 9.375% v/v, POE Castor Oil 5% v/v",2910 µg/mL
same,buffer pH at which the best stability was achieved,"[6]; 0.2 mg drug/mL in 16.7% v/v ethanol:0.1M citrate buffers, 2 days storage at 85° C., HPLC relative area percent",4.5
same,apparent pH of the most stable solution,"[6]; 1 mg drug/mL in 75% v/v ethanol:0.01M tartrate buffers, 18 days at 50° C., corresponds to tartrate buffer pH 3.8",5.4
same,% Compound Remaining,[6]; [9],94.4%
same,Total Impurity Index,[6]; [9],4.16 Area %
same,% Compound Remaining,[6]; [10],97.1%
same,Total Impurity Index,[6]; [10],2.51 Area %
same,% Compound Remaining,[6]; [11],97.1%
same,Total Impurity Index,[6]; [11],2.06 Area %
same,% Compound Remaining,[6]; [12],98.1%
same,Total Impurity Index,[6]; [12],1.36 Area %
same,% Compound Remaining,[6]; [13],101%
same,Total Impurity Index,[6]; [13],1.34 Area %
same,% Compound Remaining,[6]; [14],100%
same,Total Impurity Index,[6]; [14],1.62 Area %
same,% Compound Remaining,[6]; [15],98.1%
same,Total Impurity Index,[6]; [15],1.99 Area %
same,% Compound Remaining,[6]; [16],99%
same,Total Impurity Index,[6]; [16],1.67 Area %
same,% Compound Remaining,[6]; [17],100%
same,Total Impurity Index,[6]; [17],1.84 Area %
same,solubility thermodynamic,"[7]; 5 °C, 5±3° C., read-out: equilibrium solubility",23000 µg/mL
same,solubility at 16 h,"[7]; 25 °C, room temperature, average of four lots",~22000 µg/mL
same,solubility,"[8]; ethanol:water mixture, Dehydrated Alcohol, USP 33% v/v in water",30 µg/mL
same,solubility,"[8]; ethanol:water mixture, Dehydrated Alcohol, USP 50% v/v in water",1640 µg/mL
same,solubility,"[8]; ethanol:water mixture, Dehydrated Alcohol, USP 75% v/v in water",> 17500 µg/mL
same,solubility,"[8]; tertiary butyl alcohol:water mixture, Tertiary Butyl Alcohol 33% v/v in water",190 µg/mL
same,solubility,"[8]; tertiary butyl alcohol:water mixture, Tertiary Butyl Alcohol 50% v/v in water",3130 µg/mL
same,solubility,"[8]; tertiary butyl alcohol:water mixture, Tertiary Butyl Alcohol 66% v/v in water",13000 µg/mL

# Source: US20040122081A1, “Pharmaceutical compositions and methods of using taxane derivatives” (priority 2002, published 2004)
